Test systems include OVCAR-8 ovarian; A498 renal; COLO 205 colon; CAKI-1 renal; DU-145 prostate; SF-268 CNS; T-47D breast; RXF 393 renal; SK-MEL-28 melanoma; MDA-MB-435.
What all share (experiment): NCI anticancer screen, dose series, 48 h

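Where inhibition never reached the appropriate level, the endpoint shown equals the highest concentration tested. Otherwise, values were interpolated linearly from a five-concentration, 48-hour dose response in 96-well plates. At the GI50, growth is halved. TGI marks complete inhibition of growth.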

Take `CC1C2(C)OC(=N)C(C#N)(C(c3cccc([N+](=O)[O-])c3)O2)C1(C#N)C#N` (configuration not stated): the TGI in the test with OVCAR-8 ovarian is more than 100 µM; in the test with A498 renal, more than 100 µM; in the test on COLO 205 colon it was 27.5 µM; in the test with CAKI-1 renal, 24.4 µM; in the test on DU-145 prostate, more than 100 µM; with SF-268 CNS, more than 100 µM. Also, the TGI worked out at 35.9 µM with T-47D breast, 43.9 µM with RXF 393 renal and 47.5 µM with SK-MEL-28 melanoma.

As for `CC[C@H]1C=CCC[C@@]2(C[C@@H]3CC[C@H]4[C@@H](C(=O)OCCCCCCCCCCCCCCCC(=O)N(CCCN)C[C@@H](O)CCN)[C@@]5(CCC[C@@H](C)O5)NC(=[N+]34)N2)O1`, the TGI is 4.93 µM with OVCAR-8 ovarian; 6.62 µM in the test on A498 renal; 3.79 µM with COLO 205 colon; more than 10 µM with CAKI-1 renal; 3.61 µM with DU-145 prostate; 3.45 µM in the test on SF-268 CNS. Besides, the TGI worked out at 4.41 µM in the test with RXF 393 renal, 2.88 µM in the test on SK-MEL-28 melanoma and 2.88 µM in the test on MDA-MB-435.

As for `COc1ccc(CN=C(N)N)c2ccccc12`, the TGI in the test with OVCAR-8 ovarian was more than 100 µM; in the test with COLO 205 colon, 38 µM; in the test with CAKI-1 renal it was more than 100 µM; with DU-145 prostate, more than 100 µM; in the test with SF-268 CNS, 38.8 µM; with T-47D breast it was more than 100 µM. Moreover, the TGI with RXF 393 renal is more than 100 µM; with SK-MEL-28 melanoma, 86.5 µM.

Turning to `Cc1ccc2oc(=O)c(C(=O)Nc3nc(C45CC6CC(CC(C6)C4)C5)cs3)cc2c1`, the TGI in the test with OVCAR-8 ovarian, with A498 renal, with COLO 205 colon, in the test on CAKI-1 renal, in the test on DU-145 prostate and in the test on SF-268 CNS was more than 100 µM each time. In addition, the TGI with RXF 393 renal, with SK-MEL-28 melanoma and in the test on MDA-MB-435 was more than 100 µM each time.

In the case of `CC(C)C(/C=C/c1ccc(Cl)c(Cl)c1)=N\NC(=O)N/N=C(/C=C/c1ccc(Cl)c(Cl)c1)C(C)C`, the TGI in the test with OVCAR-8 ovarian, with A498 renal, in the test with COLO 205 colon, in the test with CAKI-1 renal, in the test with DU-145 prostate and with SF-268 CNS was more than 100 µM each time. Also, the TGI with SK-MEL-28 melanoma and in the test on MDA-MB-435 was more than 100 µM throughout.

Consider `CCOC(=O)C(NC(=O)c1ccccc1)(N1CCOCC1)C(F)(F)F` (configuration not stated), for which the TGI with OVCAR-8 ovarian, with COLO 205 colon, in the test on CAKI-1 renal, in the test with DU-145 prostate, with SF-268 CNS and with T-47D breast was more than 100 µM throughout. Further, the TGI in the test with RXF 393 renal, with SK-MEL-28 melanoma and with MDA-MB-435 was more than 100 µM each time.

For `CCNC(=O)c1c(O)c2ccccc2[nH]c1=O`, the TGI with OVCAR-8 ovarian, with A498 renal, in the test on COLO 205 colon, in the test on CAKI-1 renal, in the test on DU-145 prostate and with SF-268 CNS was more than 100 µM in each case. Moreover, the TGI with RXF 393 renal, in the test with SK-MEL-28 melanoma and in the test on MDA-MB-435 was more than 100 µM in each case.

In the case of `O=CC12C3CCC1C2C(=O)C3` (configuration not stated), the TGI with OVCAR-8 ovarian, in the test on COLO 205 colon, in the test with CAKI-1 renal, in the test with DU-145 prostate, with SF-268 CNS and in the test with RXF 393 renal was more than 100 µM each time. Moreover, the TGI with SK-MEL-28 melanoma and in the test with MDA-MB-435 was more than 100 µM throughout.

As to `CC(C)C(N)=O`, the TGI with OVCAR-8 ovarian, in the test with COLO 205 colon, in the test with CAKI-1 renal, with SF-268 CNS, in the test with RXF 393 renal and in the test with SK-MEL-28 melanoma was more than 5000 µM each time.

Regarding `CC(C)C1=CC23CCC4C(C)(C(=O)O)CCCC4(C)C2CC1C1C(=O)N(c2ccccc2)C(=O)C13` (configuration not stated), the TGI with OVCAR-8 ovarian is more than 100 µM; in the test on COLO 205 colon it was 52.3 µM; with CAKI-1 renal, more than 100 µM; in the test with SF-268 CNS it was more than 100 µM; in the test on RXF 393 renal, 76.1 µM; in the test on SK-MEL-28 melanoma it was more than 100 µM.

On to `CC(=O)NC1=C[C@@H]([C@H]2COC(C)(C)O2)OC1=O`, for which the TGI in the test with OVCAR-8 ovarian, in the test with A498 renal, with COLO 205 colon, with CAKI-1 renal, with SF-268 CNS and in the test with RXF 393 renal was more than 100 µM each time. In addition, the TGI in the test with SK-MEL-28 melanoma was more than 100 µM.

For the compound `COc1cc2cc(C(=O)N3CC(CCl)c4c3cc(N)c3ccccc43)[nH]c2c(OC)c1OC` (configuration not stated), the TGI with OVCAR-8 ovarian is less than 0.01 µM; in the test on A498 renal, less than 0.01 µM; in the test with COLO 205 colon it was less than 0.01 µM; with CAKI-1 renal, less than 0.01 µM; with DU-145 prostate, 0.0549 µM; with SF-268 CNS, less than 0.01 µM. Moreover, the values for the TGI in the test on T-47D breast and in the test on RXF 393 renal were more than 100 µM and less than 0.01 µM, respectively.

Consider `Cc1ccc(/C(O)=C/c2nc3ccccc3s/c2=N/CS(=O)(=O)c2ccc(C)cc2)cc1`, for which the TGI in the test with OVCAR-8 ovarian, in the test on COLO 205 colon, in the test with CAKI-1 renal, in the test with DU-145 prostate, with SF-268 CNS and in the test on T-47D breast was more than 10 µM throughout. Moreover, the TGI with SK-MEL-28 melanoma and in the test on MDA-MB-435 was more than 10 µM throughout.

With `COC(C)(C)C1(O)CCC(C)CC1=O` (configuration not stated), the TGI in the test with OVCAR-8 ovarian, in the test on A498 renal, with COLO 205 colon, with CAKI-1 renal, in the test with DU-145 prostate and with SF-268 CNS was more than 100 µM in each case. Further, the TGI in the test with RXF 393 renal, in the test with SK-MEL-28 melanoma and in the test on MDA-MB-435 was more than 100 µM throughout.

For `FC1C2=C(SC1(F)F)C1CCC2C1` (configuration not stated), the TGI in the test on OVCAR-8 ovarian, in the test on COLO 205 colon, in the test with CAKI-1 renal, in the test with DU-145 prostate, in the test on T-47D breast and in the test with RXF 393 renal was more than 100 µM in each case. In the test with MDA-MB-435, this compound showed a TGI of more than 100 µM.

As to `Cc1csc(/N=C\c2c(O)c3ccccc3oc2=O)n1`, the TGI with OVCAR-8 ovarian is more than 100 µM; in the test with COLO 205 colon it was more than 100 µM; in the test with CAKI-1 renal, 34.1 µM; in the test with DU-145 prostate, more than 100 µM; in the test on SF-268 CNS, more than 100 µM; in the test on MDA-MB-435, more than 100 µM.

As to `O=C1CCCCCCCCCCC1CN1CCCCC1` (configuration not stated), the TGI in the test on OVCAR-8 ovarian, with A498 renal, in the test on COLO 205 colon, with SF-268 CNS and in the test on SK-MEL-28 melanoma was more than 100 µM in each case.

Consider `COC(=O)c1cnc(Cl)cn1`, for which the TGI in the test on OVCAR-8 ovarian is more than 100 µM; in the test on COLO 205 colon, more than 100 µM; in the test on CAKI-1 renal, 37.5 µM; in the test with DU-145 prostate, more than 100 µM; with SF-268 CNS, more than 100 µM; in the test with T-47D breast, more than 100 µM. For the same compound, the TGI in the test on SK-MEL-28 melanoma and with MDA-MB-435 was more than 100 µM throughout.

Consider `CC(C)(C)C(=O)OC12/C(=N/O)CCCCCC1c1ccccc12` (configuration not stated), for which the TGI in the test on OVCAR-8 ovarian is 33.4 µM; with A498 renal it was 30.5 µM; in the test on COLO 205 colon it was 31.3 µM; in the test with CAKI-1 renal, 24.6 µM; with SF-268 CNS, 32.4 µM; in the test with RXF 393 renal, 33.9 µM. This compound also yielded a TGI with SK-MEL-28 melanoma of 32.8 µM.

With `N#Cc1c(-c2ccccc2)c(N=Nc2ccc(Cl)cc2)c(=O)n2c1[nH]c1ccccc12`, the TGI in the test with OVCAR-8 ovarian, in the test on A498 renal, in the test with COLO 205 colon, with CAKI-1 renal, with SF-268 CNS and in the test with T-47D breast was more than 100 µM in each case. The TGI in the test with RXF 393 renal, in the test with SK-MEL-28 melanoma and in the test on MDA-MB-435 was more than 100 µM throughout.

As to `C=C(OC1C(C)=C2C(C1OC(=O)CCCCCCC)C(C)(OC(C)=O)CC(OC(=O)CCC)C1(O)C2OC(=O)C1(C)O)/C(C)=C/C` (configuration not stated), the GI50 was 0.000243 µM in the test with OVCAR-8 ovarian, less than 0.0001 µM in the test on COLO 205 colon, 0.000475 µM in the test with CAKI-1 renal and less than 0.0001 µM with SF-268 CNS. Moreover, the TGI in the test with OVCAR-8 ovarian came out at 5.98 µM; with A498 renal, 3.29 µM; in the test with COLO 205 colon, 0.101 µM; in the test with CAKI-1 renal it was 0.0615 µM; with SF-268 CNS, 16.7 µM; with RXF 393 renal it was 1.53 µM. This compound returned a TGI in the test on SK-MEL-28 melanoma of 3.97 µM.

Consider `CCOC(=O)CC1(c2cccc3ccccc23)OC(=O)c2ccccc21` (configuration not stated), for which the TGI was more than 100 µM in the test with OVCAR-8 ovarian; more than 100 µM with A498 renal; 98.5 µM with COLO 205 colon; more than 100 µM in the test on CAKI-1 renal; more than 100 µM in the test on SF-268 CNS; 70.1 µM in the test on RXF 393 renal. This compound also came in with a TGI with SK-MEL-28 melanoma of more than 100 µM.

`CC(C)=CCC/C(C)=C/CC/C(C)=C/CC/C(=C/CC/C(C)=C\CC/C(C)=C/CC/C(C)=C/CC/C(C)=C/Cc1cc(O)ccc1O)CO`: the TGI in the test on OVCAR-8 ovarian was 13.5 µM; in the test on A498 renal, 18.2 µM; in the test on COLO 205 colon it was 7.87 µM; in the test on CAKI-1 renal, 4.82 µM; with DU-145 prostate, more than 100 µM; in the test on SF-268 CNS, 9.17 µM. Moreover, the results for the TGI in the test with RXF 393 renal, with SK-MEL-28 melanoma and with MDA-MB-435 were 2 µM, 10.9 µM and more than 31.8 µM, respectively.

Regarding `c1csc(C[N+]23CN4CN(CN(C4)C2)C3)c1`, the TGI in the test on OVCAR-8 ovarian was 74.9 µM; in the test on COLO 205 colon, 40.8 µM; with CAKI-1 renal, 59.5 µM; in the test with SF-268 CNS, more than 100 µM; with SK-MEL-28 melanoma it was more than 100 µM.

For the origin of these results see PubChem BioAssay (NCI).
